In US20080096894A1, “Anti-Bacterial Compounds” (ASTON UNIVERSITY, priority 2005, published 2008):
Values after ≈ are worked out from the molar mass of the structure shown. Read-outs that look alike come from different tables or passages of the source.

Assays:
Test in all cases: MIC, agar dilution, multipoint inoculator
[1] = tested on: S. epidemisis; type: cell-based, Staphylococcus epidermidis; conditions: upper value of MIC reading
Description: (§1) This activity was measured using a multipoint inoculator method as follows. The MIC for each compound was measured using an agar dilution method (Onda, H., et al., Int. J. Antimicrob. Agents. 18, 263 (2001)) (Mueller Hinton agar) by means of a multipoint inoculator delivering 10^4 colony forming units per spot.

[2] = tested on: P. auriginosa; type: cell-based, Pseudomonas aeruginosa; conditions: P. auriginosa NCTC 6749, upper value of MIC reading
Description: as §1

[3] = tested on: E. faecium; type: cell-based, Enterococcus faecium; conditions: upper value of MIC reading
Description: as §1

[4] = tested on: MRSA; type: cell-based, methicillin-resistant Staphylococcus aureus
Description: as §1
‘Staph’ refers to the reference strain of S. aureus (NCTC 6571). A tick in the MRSA column refers to a positive zone against MRSA strain 96-7474, and the MIC range (in μg/ml) which follows is that found against a panel of ten MRSA strains. Where MIC values are given for MRSA, these are stated as a range of values, as testing was carried out on a panel of clinical isolates.

[5] = tested on: S. aureus; type: cell-based, Staphylococcus aureus; conditions: upper value of MIC reading
Description: as §1

[6] = tested on: S. marcesens; type: cell-based, Serratia marcescens; conditions: S. marcesens 4444, upper value of MIC reading
Description: as §1

[7] = tested on: E. faecalis; type: cell-based; conditions: upper value of MIC reading
Description: as §1

[8] = tested on: S. maltophilia; type: cell-based; conditions: S. maltophilia NCTC 10257, upper value of MIC reading
Description: as §1

[9] = tested on: S. haemolyticus; type: cell-based; conditions: S. haemolyticus Isolate 1, upper value of MIC reading
Description: as §1

[10] = tested on: E. coli; type: cell-based, Escherichia coli; conditions: Escherichia coli, 18 h, upper value of MIC reading
Description: as §1

[11] = tested on: S. aboni; type: cell-based; conditions: S. aboni NCTC 6017; upper value of MIC reading
Description: as §1

[12] = tested on: K. pneumoniae; type: cell-based, Klebsiella pneumoniae; conditions: K. pneumoniae 327; upper value of MIC reading
Description: as §1

[13] = MRSA Isolate 1, upper value of MIC reading, in µg/mL
[14] = MRSA Isolate 2, upper value of MIC reading, in µg/mL
[15] = MRSA Isolate 3, upper value of MIC reading, in µg/mL
[16] = MRSA Isolate 4, upper value of MIC reading, in µg/mL
[17] = MRSA Isolate 5, upper value of MIC reading, in µg/mL
[18] = MRSA Isolate 6, upper value of MIC reading, in µg/mL
[19] = MRSA Isolate 7, upper value of MIC reading, in µg/mL
[20] = MRSA Isolate 8, upper value of MIC reading, in µg/mL
[21] = MRSA Isolate 9, upper value of MIC reading, in µg/mL
[22] = MRSA Isolate 10, upper value of MIC reading, in µg/mL
[23] = panel of ten MRSA strains (clinical isolates)

## CCC(C)(C)c1ccc(/C=N/N=C(\N)c2cccnc2)cc1 [Compound 3PYaf, N^1-[4-(1,1-dimethylpropyl)benzylidene]-pyridine-3-carboxamidrazone]
[1]; Staphylococcus epidermidis, 18 h, S. epidemisis Isolate 1, read-out: MIC
  MIC: 128 µg/mL (≈ 435 µM)
[1]; Staphylococcus epidermidis, NCTC11047, 18 h, S. epidemisis NCTC 11047, read-out: MIC
  MIC: 32 µg/mL (≈ 109 µM)
[2]; Pseudomonas aeruginosa, NCTC6749, 18 h, read-out: MIC
  MIC: 64 µg/mL (≈ 217 µM)
[3]; Enterococcus faecium, 18 h, E. faecium ACTCC 10541, read-out: MIC
  MIC: 64 µg/mL (≈ 217 µM)
[3]; Enterococcus faecium, NCTC7171, 18 h, E. faecium NCTC 7171, read-out: MIC
  MIC: 64 µg/mL (≈ 217 µM)
[4]; Staphylococcus aureus, 18 h, MRSA Isolate 1, upper value of MIC reading, read-out: MIC
  MIC: 64 µg/mL (≈ 217 µM)
[4]; Staphylococcus aureus, 18 h, MRSA Isolate 2, upper value of MIC reading, read-out: MIC
  MIC: 64 µg/mL (≈ 217 µM)
[4]; Staphylococcus aureus, 18 h, MRSA Isolate 3, upper value of MIC reading, read-out: MIC
  MIC: 64 µg/mL (≈ 217 µM)
[4]; Staphylococcus aureus, 18 h, MRSA Isolate 4, upper value of MIC reading, read-out: MIC
  MIC: 64 µg/mL (≈ 217 µM)
[4]; Staphylococcus aureus, 18 h, MRSA Isolate 5, upper value of MIC reading, read-out: MIC
  MIC: 64 µg/mL (≈ 217 µM)
[4]; Staphylococcus aureus, 18 h, MRSA Isolate 6, upper value of MIC reading, read-out: MIC
  MIC: 64 µg/mL (≈ 217 µM)
[4]; Staphylococcus aureus, 18 h, MRSA Isolate 7, upper value of MIC reading, read-out: MIC
  MIC: 64 µg/mL (≈ 217 µM)
[4]; Staphylococcus aureus, 18 h, MRSA Isolate 8, upper value of MIC reading, read-out: MIC
  MIC: 64 µg/mL (≈ 217 µM)
[4]; Staphylococcus aureus, 18 h, MRSA Isolate 9, upper value of MIC reading, read-out: MIC
  MIC: 64 µg/mL (≈ 217 µM)
[4]; Staphylococcus aureus, 18 h, MRSA Isolate 10, upper value of MIC reading, read-out: MIC
  MIC: 64 µg/mL (≈ 217 µM)
[4]; Staphylococcus aureus, MRSA, 18 h, panel of ten MRSA strains (clinical isolates), read-out: MRSA MIC range
  MIC: 32 to 64 µg/mL (≈ 109 to 217 µM)
[5]; Staphylococcus aureus, 18 h, S. aureus Cowan 1, read-out: MIC
  MIC: 64 µg/mL (≈ 217 µM)
[5]; Staphylococcus aureus, NCTC6571, 18 h, S. aureus NCTC 6571, read-out: MIC
  MIC: 64 µg/mL (≈ 217 µM)
[5]; Staphylococcus aureus, NCTC10788, 18 h, S. aureus NCTC 10788, read-out: MIC
  MIC: 64 µg/mL (≈ 217 µM)
[6]; Serratia marcescens, 18 h, read-out: MIC
  MIC: 256 µg/mL (≈ 870 µM)
[7]; Enterococcus faecalis, 18 h, E. faecalis EBH1, read-out: MIC
  MIC: 128 µg/mL (≈ 435 µM)
[7]; Enterococcus faecalis, 18 h, E. faecalis Isolate 1, read-out: MIC
  MIC: 64 µg/mL (≈ 217 µM)
[7]; Enterococcus faecalis, 18 h, E. faecalis Isolate 2, read-out: MIC
  MIC: 64 µg/mL (≈ 217 µM)
[7]; Enterococcus faecalis, 18 h, E. faecalis Isolate 4, read-out: MIC
  MIC: 128 µg/mL (≈ 435 µM)
[7]; Enterococcus faecalis, 18 h, E. faecalis Isolate 5, read-out: MIC
  MIC: 128 µg/mL (≈ 435 µM)
[7]; Enterococcus faecalis, NCTC5957, 18 h, E. faecalis NCTC 5957, read-out: MIC
  MIC: 64 µg/mL (≈ 217 µM)
[8]; Stenotrophomonas maltophilia, NCTC10257, 18 h, read-out: MIC
  MIC: 64 µg/mL (≈ 217 µM)
[9]; Staphylococcus haemolyticus, 18 h, read-out: MIC
  MIC: 64 µg/mL (≈ 217 µM)
[10]; E. coli W3110R+
  MIC: 64 µg/mL (≈ 217 µM)
[10]; E. coli W3110R−
  MIC: 64 µg/mL (≈ 217 µM)

## CN(C)CCCOc1ccc(C=NN=C(N)c2ccc3ccccc3n2)cc1 [QNds]
[1]; S. epidemisis Isolate 1
  MIC: 256 µg/mL (≈ 682 µM)
[1]; S. epidemisis NCTC 11047
  MIC: 256 µg/mL (≈ 682 µM)
[3]; E. faecium ACTCC 10541
  MIC: 128 µg/mL (≈ 341 µM)
[3]; E. faecium NCTC 7171
  MIC: 64 µg/mL (≈ 170 µM)
[4]; [13]
  MIC: 64
[4]; [14]
  MIC: 64
[4]; [15]
  MIC: 64
[4]; [16]
  MIC: 64
[4]; [17]
  MIC: 64
[4]; [18]
  MIC: 64
[4]; [19]
  MIC: 64
[4]; [20]
  MIC: 64
[4]; [21]
  MIC: 64
[4]; [22]
  MIC: 64
[4]; [23]
  MRSA MIC range: 32 to 128 µg/mL
[5]; S. aureus Cowan 1
  MIC: 128 µg/mL (≈ 341 µM)
[5]; S. aureus NCTC 6571
  MIC: 128 µg/mL (≈ 341 µM)
[5]; S. aureus NCTC 10788
  MIC: 128 µg/mL (≈ 341 µM)
[7]; E. faecalis EBH1
  MIC: 128 µg/mL (≈ 341 µM)
[7]; E. faecalis Isolate 1
  MIC: 128 µg/mL (≈ 341 µM)
[7]; E. faecalis Isolate 2
  MIC: 128 µg/mL (≈ 341 µM)
[7]; E. faecalis Isolate 3
  MIC: 128 µg/mL (≈ 341 µM)
[7]; E. faecalis Isolate 4
  MIC: 128 µg/mL (≈ 341 µM)
[7]; E. faecalis Isolate 5
  MIC: 64 µg/mL (≈ 170 µM)
[7]; E. faecalis NCTC 5957
  MIC: 64 µg/mL (≈ 170 µM)
[8]
  MIC: 256 µg/mL (≈ 682 µM)
[9]
  MIC: 256 µg/mL (≈ 682 µM)

## NC(=NN=Cc1cc(Br)cc([N+](=O)[O-])c1O)c1cccnc1 [Compound 3PYcl]
[1]; S. epidemisis Isolate 1
  MIC: 256 µg/mL (≈ 703 µM)
[1]; S. epidemisis NCTC 11047
  MIC: 256 µg/mL (≈ 703 µM)
[3]; E. faecium ACTCC 10541
  MIC: 128 µg/mL (≈ 351 µM)
[3]; E. faecium NCTC 7171
  MIC: 256 µg/mL (≈ 703 µM)
[4]; [13]
  MIC: 64
[4]; [14]
  MIC: 64
[4]; [15]
  MIC: 64
[4]; [16]
  MIC: 32
[4]; [17]
  MIC: 32
[4]; [18]
  MIC: 64
[4]; [19]
  MIC: 64
[4]; [20]
  MIC: 64
[4]; [21]
  MIC: 64
[4]; [22]
  MIC: 64
[4]; [23]
  MRSA MIC range: 16 to 64 µg/mL
[5]; S. aureus Cowan 1
  MIC: 64 µg/mL (≈ 176 µM)
[5]; S. aureus NCTC 6571
  MIC: 32 µg/mL (≈ 87.9 µM)
[5]; S. aureus NCTC 10788
  MIC: 32 µg/mL (≈ 87.9 µM)
[11]
  MIC: 256 µg/mL (≈ 703 µM)
[7]; E. faecalis EBH1
  MIC: 256 µg/mL (≈ 703 µM)
[7]; E. faecalis Isolate 1
  MIC: 128 µg/mL (≈ 351 µM)
[7]; E. faecalis Isolate 2
  MIC: 128 µg/mL (≈ 351 µM)
[7]; E. faecalis Isolate 4
  MIC: 256 µg/mL (≈ 703 µM)
[7]; E. faecalis Isolate 5
  MIC: 128 µg/mL (≈ 351 µM)
[7]; E. faecalis NCTC 5957
  MIC: 128 µg/mL (≈ 351 µM)
[9]
  MIC: 128 µg/mL (≈ 351 µM)

## CCOc1ccccc1C=NN=C(N)c1cccnc1 [Compound 3PYay]
[1]; S. epidemisis NCTC 11047
  MIC: 128 µg/mL (≈ 477 µM)
[2]
  MIC: 128 µg/mL (≈ 477 µM)
[4]; [13]
  MIC: 256
[4]; [14]
  MIC: 128
[4]; [15]
  MIC: 128
[4]; [16]
  MIC: 128
[4]; [17]
  MIC: 128
[4]; [22]
  MIC: 256
[4]; [23]
  MRSA MIC range: > 256 µg/mL
[5]; S. aureus NCTC 6571
  MIC: > 256 µg/mL
[6]
  MIC: 256 µg/mL (≈ 954 µM)
[12]
  MIC: 256 µg/mL (≈ 954 µM)
[7]; E. faecalis EBH1
  MIC: 128 µg/mL (≈ 477 µM)
[7]; E. faecalis Isolate 1
  MIC: 128 µg/mL (≈ 477 µM)
[7]; E. faecalis Isolate 2
  MIC: 128 µg/mL (≈ 477 µM)
[7]; E. faecalis NCTC 5957
  MIC: 128 µg/mL (≈ 477 µM)
[8]
  MIC: 256 µg/mL (≈ 954 µM)
[9]
  MIC: 256 µg/mL (≈ 954 µM)
